Assay results as given in PubChem BioAssay (NCI).
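Method: 48-hour compound exposure of cells in 96-well plates, five concentrations, linear interpolation of endpoints. Abbreviation: GI50, concentration required for 50% inhibition of growth. TGI is the concentration that stops growth completely.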

Columns and labels:
Experiment in all cases: NCI anticancer screen, dose series, 48 h
[1] = test system: MOLT-4 leukemia
[2] = test system: CCRF-CEM leukemia
[3] = test system: LOX IMVI melanoma
[4] = test system: HT29 colon
[5] = test system: K-562 leukemia
[6] = test system: U251 CNS
[7] = test system: HOP-62 NSCLC
[8] = test system: M14 melanoma
[9] = test system: OVCAR-4 ovarian
[10] = test system: OVCAR-5 ovarian
[11] = test system: RXF 393 renal

| SMILES | TGI [1] | TGI [2] | TGI [3] | TGI [4] | TGI [5] | TGI [6] | TGI [7] | TGI [8] | TGI [9] | TGI [10] | GI50 [2] | GI50 [3] | GI50 [6] | GI50 [8] | GI50 [9] | GI50 [11] | TGI [11] | GI50 [10] | GI50 [1] | GI50 [5] |
| --- | --- | --- | --- | --- | --- | --- | --- | --- | --- | --- | --- | --- | --- | --- | --- | --- | --- | --- | --- | --- |
| CC[C@@H]1ON(C)[C@H]2CN(C)C(=O)[C@@H]12 | > 100 µM | > 100 µM | > 100 µM | > 100 µM | > 100 µM | > 100 µM | > 100 µM | > 100 µM | > 100 µM | > 100 µM |  |  |  |  |  |  |  |  |  |  |
| c1ccc(N2N=C(c3cccc(Nc4ccncc4)c3)CC2c2ccc3c(c2)OCO3)cc1 (configuration not stated) |  | 7.85 µM | 3.08 µM |  |  | 3.74 µM |  | 3.48 µM | 3.89 µM | 4.85 µM | 1.78 µM | 1.69 µM | 1.81 µM | 1.63 µM | 1.53 µM | 1.61 µM | 3.06 µM | 2.06 µM |  |  |
| C=C(C)C(=O)O[C@H]1CC2=C[C@@H](C[C@@]3(C)O[C@@H]3[C@H]3OC(=O)C(=C)[C@@H]31)OC2=O | 12.8 µM | 300 µM | 1.29 µM | 5.93 µM | 47.6 µM | 14.6 µM | 98.9 µM |  | 6.48 µM | 12.2 µM | 1.18 µM |  |  |  |  |  | 1.16 µM |  | 0.789 µM | 1.21 µM |
| COc1ccc2c(c1O)-c1cc(O)cc3c1[C@@H](C2)N(C)CC3 | 211 µM | 262 µM | 142 µM | 223 µM | 241 µM | 250 µM | 106 µM |  | 125 µM | 63.3 µM |  |  |  |  |  |  | 119 µM |  |  |  |
| COc1cc(C2S/C(=C/c3ccccc3)C(=O)N2c2ccc(NC(C)=O)cc2)cc(OC)c1OC (configuration not stated) | 75.6 µM | 20.4 µM | 63.7 µM | 32 µM | > 100 µM | 38.5 µM | > 100 µM | 56.9 µM | > 100 µM | 96.2 µM |  |  |  |  |  |  | 63 µM |  |  |  |
| COc1nc2ccc(COc3ccc(C(=O)NC(CCC(=O)O)C(=O)O)cc3)cc2nc1OC (configuration not stated) | > 10 µM | > 10 µM | > 10 µM | > 10 µM | > 10 µM | > 10 µM | > 10 µM | > 10 µM | > 10 µM | > 10 µM |  |  |  |  |  |  | > 10 µM |  |  |  |
| NC(=S)N/N=C/c1nccc2ccccc12 | > 100 µM |  | 2.64 µM | > 100 µM | > 100 µM | > 100 µM | > 100 µM |  | > 100 µM | > 100 µM |  |  |  |  |  |  | 0.902 µM |  |  |  |
| Cc1nc2c(c(=O)[nH]1)S/C(=C(/C#N)c1nc3ccccc3[nH]1)N2c1ccccc1 | > 100 µM | > 100 µM |  | > 100 µM | > 100 µM | > 100 µM | > 100 µM | > 100 µM | > 100 µM | > 100 µM |  |  |  |  |  |  | > 100 µM |  |  |  |
| O=C1C(Cl)N(c2cccc(Cl)c2)C1c1c[nH]c2ccccc12 (configuration not stated) | > 100 µM | > 100 µM |  | > 100 µM | > 100 µM | > 100 µM | > 100 µM | > 100 µM | > 100 µM |  |  |  |  |  |  |  | > 100 µM |  |  |  |
